The record followed here is ChEMBL document CHEMBL1138862 (J Med Chem, 2006).

The test system of test [1] is Escherichia coli. Put plainly: Antibacterial activity against Escherichia coli W3110. The test is classed as functional.
Test [2] deals with Escherichia coli. Briefly: Antibacterial activity against Escherichia coli pTMV19 in presence of mevalonate. The test is classed as functional.
The subject of test [3] is Escherichia coli. Put plainly: Antibacterial activity against Escherichia coli pTMV19. The test is classed as functional.
Test [4] concerns the target T1, Farnesyl diphosphate synthase (Escherichia coli K-12, UniProt P22939).
T1 sequence (P22939 whole entry): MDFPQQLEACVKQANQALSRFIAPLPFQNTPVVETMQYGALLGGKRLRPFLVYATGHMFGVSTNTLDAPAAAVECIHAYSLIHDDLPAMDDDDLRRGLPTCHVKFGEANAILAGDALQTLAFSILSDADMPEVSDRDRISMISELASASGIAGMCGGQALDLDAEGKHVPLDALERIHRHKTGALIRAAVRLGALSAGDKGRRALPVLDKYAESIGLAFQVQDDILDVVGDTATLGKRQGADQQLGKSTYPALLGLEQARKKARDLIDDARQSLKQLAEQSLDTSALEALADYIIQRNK
Put plainly: Inhibition of Escherichia coli FPPS.

For test [5], the system named is Escherichia coli. Put plainly: Ratio, MIC/MBC for Escherichia coli K12 in presence of fosmidomycin. The test is classed as functional.
The subject of test [6] is Escherichia coli. Put plainly: Antibacterial activity against Escherichia coli K12 by broth microdilution method. The test is classed as functional, organism-based. A general note: In broth dilution the organism is exposed to a series of concentrations in liquid medium.
Test [7] relates to Escherichia coli. Briefly: Antibacterial activity against Escherichia coli K12 in presence of fosmidomycin. The test is classed as functional.
Test [8] is described as follows: Inhibition of Trypanosoma brucei FPPS expressed in Escherichia coli.
The target of test [9] is T2, 1-deoxy-D-xylulose 5-phosphate reductoisomerase (Escherichia coli K-12, UniProt P45568).
T2 sequence (P45568 whole entry): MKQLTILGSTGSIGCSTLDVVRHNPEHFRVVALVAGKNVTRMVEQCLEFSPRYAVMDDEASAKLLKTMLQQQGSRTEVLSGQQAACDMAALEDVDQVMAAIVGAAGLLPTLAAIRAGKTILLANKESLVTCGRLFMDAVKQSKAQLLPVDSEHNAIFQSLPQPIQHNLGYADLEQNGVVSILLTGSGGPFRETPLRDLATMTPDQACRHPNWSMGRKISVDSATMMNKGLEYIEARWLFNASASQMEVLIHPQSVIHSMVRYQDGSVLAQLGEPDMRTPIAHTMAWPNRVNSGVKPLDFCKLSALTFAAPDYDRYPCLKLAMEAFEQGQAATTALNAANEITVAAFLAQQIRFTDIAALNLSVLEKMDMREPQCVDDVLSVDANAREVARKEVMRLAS
Put plainly: Inhibition of Escherichia coli DXR.

Test [10] relates to Escherichia coli. Put plainly: Ratio, MIC/MBC for Escherichia coli K12. The test is classed as functional.
The subject of test [11] is Escherichia coli. Briefly: Antibacterial activity against Escherichia coli K12. The test is classed as functional.

≈ marks a conversion by molar mass, not a printed value.

A word on the IC50: it is the point on the concentration scale where inhibition reaches its midpoint. In general, MBC refers to the smallest concentration meeting the test's criterion for killing. In general, MIC refers to the least concentration at which growth counts as inhibited.

For `O=P(O)(O)C(O)(Cn1cnc2ccccc21)P(=O)(O)O`, the “inhibition zone (IZ)” value in the test with Escherichia coli [1] was 14 mm; with Escherichia coli [2], 13 mm; in the test with Escherichia coli [3], 0 mm. Half-maximal inhibition in test [4] (IC50) required 0.7 µM.

In the case of `CN(CCCCc1ccccc1)CCC(O)(P(=O)(O)O)P(=O)(O)O`, the “inhibition zone (IZ)” value in the test on Escherichia coli [1] is given as 19 mm; in the test on Escherichia coli [2], 17 mm; in the test with Escherichia coli [3], 18 mm. The Ratio in the test on Escherichia coli [5] is 0.5; in the test on Escherichia coli [10], 0.13. Also, the half-inhibitory concentration (IC50) in the test on Escherichia coli [6] is 33 µM; in test [8], 444 µM; in test [4], 1.3 µM; in [9], 245 µM. In addition, the minimal bactericidal concentration (MBC) in the test on Escherichia coli [7] is 625 µM; against Escherichia coli [11], 1250 µM (≈ 477 µg/mL). Further, the minimal inhibitory concentration (MIC) in the test on Escherichia coli [7] stood at 312 µM; in the test with Escherichia coli [11], 156 µM (≈ 59.5 µg/mL).

As to `CC1(C)S[C@@H]2[C@H](NC(=O)C(C(=O)O)c3ccccc3)C(=O)N2[C@H]1C(=O)O` (some centres undefined) [CARBENICILLIN], the Ratio with Escherichia coli [10] is given as 1. In the test on Escherichia coli [11], this compound returned an MBC of 20 µM (≈ 7.57 µg/mL) and an MIC of 20 µM (≈ 7.57 µg/mL).

As for `O=C(O)c1cn(C2CC2)c2cc(N3CCNCC3)c(F)cc2c1=O` [CIPROFLOXACIN], the Ratio in the test on Escherichia coli [10] came out at 0.5. In the test on Escherichia coli [11], this compound yielded an MBC of 0.076 µM (≈ 0.0252 µg/mL) and an MIC of 0.038 µM (≈ 0.0126 µg/mL).

Take `O=CN(O)CCCP(=O)(O)O` [FOSMIDOMYCIN]: the “inhibition zone (IZ)” value is reported as 20 mm with Escherichia coli [1], 0 mm in the test on Escherichia coli [2] and 19 mm with Escherichia coli [3]. For the same compound, the IC50 with Escherichia coli [6] worked out at 0.22 µM; in [8] it was 0.2 µM. Also, in the test with Escherichia coli [11], the minimum bactericidal concentration (MBC) was 2500 µM (≈ 458 µg/mL). The minimum inhibitory concentration (MIC) against Escherichia coli [11] was found to be 312 µM (≈ 57.1 µg/mL).

As to `O=P(O)(O)C(O)(Cc1cnc2ccccn12)P(=O)(O)O` [MINODRONIC ACID], the “inhibition zone (IZ)” value with Escherichia coli [1] is 10 mm; in the test with Escherichia coli [2] it was 0 mm; in the test on Escherichia coli [3], 0 mm. This compound gave an IC50 in [4] of 1.1 µM.
